The nature of data set [1]: Metabolic stability in mouse liver microsome assessed as half life preincubated for 5 mins followed by NADPH addition and measured after 120 mins by LC-MS/MS analysis. Conditions: liver microsomes, time 125 min. Type of data set: ADME.
The nature of data set [2]: Metabolic stability in mouse liver microsome assessed as intrinsic clearance preincubated for 5 mins followed by NADPH addition and measured after 120 mins by LC-MS/MS analysis. Format: ADME. The following applies: liver microsomes, time 125 min, read-out: CLH. (In general: Liver microsomes are a subcellular fraction often used to study metabolism.)
Data set [3] in a line: Metabolic stability in rat liver microsome assessed as half life preincubated for 5 mins followed by NADPH addition and measured after 120 mins by LC-MS/MS analysis. Format: ADME. The following applies: liver microsomes, time 125 min.
Data set [4] is described as follows: Metabolic stability in rat liver microsome assessed as intrinsic clearance preincubated for 5 mins followed by NADPH addition and measured after 120 mins by LC-MS/MS analysis. The following applies: liver microsomes, time 125 min, read-out: CLH. Format: ADME.
The nature of data set [5]: Metabolic stability in dog liver microsome assessed as half life preincubated for 5 mins followed by NADPH addition and measured after 120 mins by LC-MS/MS analysis. Format: ADME, Canis lupus familiaris. Conditions: liver microsomes, time 125 min.
A short description of data set [6]: Metabolic stability in dog liver microsome assessed as intrinsic clearance preincubated for 5 mins followed by NADPH addition and measured after 120 mins by LC-MS/MS analysis. Type of data set: ADME, Canis lupus familiaris. Conditions: liver microsomes, time 125 min, read-out: CLH.
Data set [7] in a line: Metabolic stability in monkey liver microsome assessed as half life preincubated for 5 mins followed by NADPH addition and measured after 120 mins by LC-MS/MS analysis. Type of data set: ADME, Macaca mulatta. Conditions: rhesus monkey, liver microsomes; time 125 min.
The nature of data set [8]: Metabolic stability in monkey liver microsome assessed as intrinsic clearance preincubated for 5 mins followed by NADPH addition and measured after 120 mins by LC-MS/MS analysis. Type of data set: ADME, Macaca mulatta. The following applies: rhesus monkey, liver microsomes; time 125 min; read-out: CLH.
A short description of data set [9]: Metabolic stability in human liver microsome assessed as half life preincubated for 5 mins followed by NADPH addition and measured after 120 mins by LC-MS/MS analysis. The following applies: liver microsomes, time 125 min. Format: ADME.
Data set [10] can be described thus: Metabolic stability in human liver microsome assessed as intrinsic clearance preincubated for 5 mins followed by NADPH addition and measured after 120 mins by LC-MS/MS analysis. Format: ADME. The following applies: liver microsomes, time 125 min, read-out: CLH.
Data set [11] can be described thus: Half life in ICR mouse at 10 mg/kg, po measured up to 24 hrs. Type of data set: ADME, organism-based. The following applies: in vivo.
A short description of data set [12]: Tmax in ICR mouse at 10 mg/kg, po measured up to 24 hrs. Format: ADME, organism-based. Conditions: in vivo.
Data set [13] in a line: Cmax in ICR mouse at 10 mg/kg, po measured up to 24 hrs. The following applies: in vivo. Type of data set: ADME, organism-based.
Data set [14] can be described thus: AUC (0 to t) in ICR mouse at 10 mg/kg, po measured up to 24 hrs. Format: ADME, organism-based. Conditions: in vivo.
Data set [15] can be described thus: AUC (0 to infinity) in ICR mouse at 10 mg/kg, po measured up to 24 hrs. Conditions: in vivo. Format: ADME, organism-based.

For orientation: half-life means the time needed for the level to fall by half in the phase considered. What is called Tmax is the time from dosing to the highest level. The Cmax is the peak of the concentration-time curve. The AUC(0-t) is the area under the concentration-time curve up to a stated or last time point. Broadly, the AUC(0-inf) is total exposure, with the tail of the curve extrapolated.

For the molecule `COc1ncnc(C2CC2)c1-c1nc(N2CCOC[C@H]2c2ccc(-c3nc(C(F)(F)F)cn3C(C)C)cc2)c2occc2n1`, the half-life was 1 h in [1]; greater than 2 h in [3]; 1.92 h in data set [5]; 0.997 h in [7]; 1.43 h in data set [9]; 1.92 h in data set [11]. The CLint scaled in data set [2] is 90.8 mL/min/kg; in data set [4] it was less than 20.7 mL/min/kg; in [6] it was 30 mL/min/kg; in data set [8], 33.9 mL/min/kg; in [10] it was 20.3 mL/min/kg. Moreover, the Tmax in [12] worked out at 0.25 h. In data set [13], this molecule showed a Cmax of 3510 ng/mL. In addition, in [14], the AUC(0-t) at 24 h is 13300 ng·h/mL. This molecule also registered an AUC(0-inf) in data set [15] of 14200 ng·h/mL.

(Values after ChEMBL document CHEMBL6096740, “Discovery and Optimization of a Series of Novel Morpholine-Containing USP1 Inhibitors” (J Med Chem, 2025).)
